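Interpolation was linear, between the two tested concentrations surrounding the appropriate level; five concentrations were tested over 48 hours in 96-well plates. GI50 marks 50% less growth. TGI denotes the concentration required for complete inhibition of growth.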
Columns and labels:
Assay in all cases: NCI-60 cell line screen, 48 h
OVCAR-4 ovarian = system: OVCAR-4 ovarian
IGROV1 ovarian = system: IGROV1 ovarian
SK-MEL-2 melanoma = system: SK-MEL-2 melanoma
HCT-116 colon = system: HCT-116 colon
RPMI-8226 leukemia = system: RPMI-8226 leukemia
ACHN renal = system: ACHN renal
SNB-75 CNS = system: SNB-75 CNS
NCI-H460 lung = system: NCI-H460 lung
SN12C renal = system: SN12C renal
CAKI-1 renal = system: CAKI-1 renal

Structure (SMILES) | TGI (OVCAR-4 ovarian) | TGI (IGROV1 ovarian) | TGI (SK-MEL-2 melanoma) | TGI (HCT-116 colon) | TGI (RPMI-8226 leukemia) | TGI (ACHN renal) | TGI (SNB-75 CNS) | TGI (NCI-H460 lung) | TGI (SN12C renal) | TGI (CAKI-1 renal) | GI50 (OVCAR-4 ovarian) | GI50 (IGROV1 ovarian) | GI50 (SK-MEL-2 melanoma) | GI50 (HCT-116 colon) | GI50 (RPMI-8226 leukemia) | GI50 (ACHN renal) | GI50 (SNB-75 CNS) | GI50 (NCI-H460 lung) | GI50 (SN12C renal) | GI50 (CAKI-1 renal)
Cc1nn(C)c(=O)c2nn(-c3ccccc3)c(C)c12 | > 100 µM | > 100 µM | > 100 µM | > 100 µM | > 100 µM | > 100 µM | > 100 µM | > 100 µM | > 100 µM | > 100 µM |  |  |  |  |  |  |  |  |  | 
CC(C)(C)C(=O)OCC(COC(=O)C(C)(C)C)[N+](=O)[O-] | > 100 µM | > 100 µM | > 100 µM | > 100 µM | > 100 µM | > 100 µM | > 100 µM | > 100 µM | > 100 µM | > 100 µM |  |  |  |  |  |  |  |  |  | 
C#CC#CC#CC#CC#CC#CC#CC#CCC1OC[C@H](COC(=O)O[C@@H](C(=O)O[C@H]2C[C@@]3(O)[C@@H](OC(=O)c4ccccc4)[C@@H]4[C@]5(OC(C)=O)CO[C@@H]5C[C@H](O)[C@@]4(C)C(=O)[C@H](OC(C)=O)C(=C2C)C3(C)C)[C@@H](NC(=O)c2ccccc2)c2ccccc2)O1 (stereo not given in full) | > 33.3 µM | > 33.3 µM | > 33.3 µM | > 33.3 µM | > 33.3 µM | > 33.3 µM | 0.648 µM | > 33.3 µM | > 33.3 µM | > 33.3 µM | > 33.3 µM | 0.424 µM | 1.56 µM | 0.145 µM | 0.114 µM | > 33.3 µM | 0.0727 µM | 0.123 µM | 1.34 µM | 1.4 µM
CC(C)(C)c1nnc2n(c1=O)N=CC(c1ccc(Br)cc1)S2 (stereo not given) | > 100 µM | 92.8 µM | 66.1 µM | 50.9 µM | > 100 µM | 75.9 µM | 96.6 µM | > 100 µM | 57.2 µM | 62.5 µM | 33.9 µM | 26.5 µM | 25.3 µM | 23.9 µM | 25.6 µM | 29.6 µM | 21.5 µM | 30.1 µM | 27.7 µM | 24.7 µM
c1ccc2c(c1)ccc1c3ccccc3ccc21 | > 50 µM | > 50 µM | > 50 µM | > 50 µM | > 50 µM | > 50 µM | > 50 µM | > 50 µM | > 50 µM | > 50 µM | > 50 µM | > 50 µM | > 50 µM | > 50 µM | > 50 µM | > 50 µM | > 50 µM | > 50 µM | > 50 µM | > 50 µM
CC1(C)CC[C@]2(C(=O)O)CC[C@]3(C)[C@H](CC[C@@H]4[C@@]5(C)CCC(=O)C(C)(C)[C@@H]5CC[C@]43C)[C@H]2[C@H]1OC(=O)C(F)(F)F | 29.8 µM | 40.5 µM | 30.9 µM | 17.8 µM | 30.9 µM | 26.1 µM | > 100 µM | 29.7 µM | 24.8 µM | 25.7 µM | 13.1 µM | 18.9 µM | 14.1 µM | 4.8 µM | 4.82 µM | 13.3 µM | 26.4 µM | 7.65 µM | 11.5 µM | 12.8 µM
C1C[OH+]CC[OH+]CC[OH+]CC[OH+]CC[OH+]CC[OH+]1.[Cl-].[Ta+5] | > 100 µM | > 100 µM | > 100 µM | > 100 µM | > 100 µM | > 100 µM | > 100 µM | > 100 µM | > 100 µM | > 100 µM | > 100 µM | > 100 µM | > 100 µM | > 100 µM | > 100 µM | > 100 µM | 23.8 µM | > 100 µM | > 100 µM | > 100 µM
CS(=O)(=O)CS(=O)CS(=O)CS(=O)CC(NC(=O)CCC(N)C(=O)O)C(=O)O (stereo not given) | > 100 µM | > 100 µM | > 100 µM | > 100 µM | > 100 µM | > 100 µM | > 100 µM | > 100 µM | > 100 µM | > 100 µM |  |  |  |  |  |  |  |  |  | 
N#Cc1ccc2oc3ccc(C#N)cc3c(=O)c2c1 | 38.3 µM | > 100 µM | 37.4 µM | > 100 µM | 62.4 µM | > 100 µM | 58.6 µM | 37.4 µM | > 100 µM | > 100 µM |  |  |  |  |  |  |  |  |  | 
O=C(CC(=O)c1ccccc1NC1=Cc2ccccc2C(=O)C1=O)C(=O)NC1=C(Cl)C(=O)c2ccccc2C1=O | 15.1 µM | 17.6 µM | 6.6 µM | 6.37 µM | 14.5 µM | 10.7 µM | 3.19 µM | 12.1 µM | 3.67 µM | 24.1 µM |  |  |  |  |  |  |  |  |  | 
CC(C)[C@@H](CS(=O)(=O)C(C)C)N1C(=O)[C@@](C)(CC(=O)O)C[C@H](c2cccc(Cl)c2)[C@H]1c1ccc(Cl)cc1 | > 75.9 µM | > 85.1 µM | 42.1 µM | 17.2 µM | 53 µM | 15.4 µM | > 85.8 µM | 15.1 µM | > 70.5 µM | 32.8 µM | 7.45 µM | 8.61 µM | 17.6 µM | 0.454 µM | 15 µM | 0.394 µM | 12.2 µM | 0.388 µM | 19.8 µM | 0.378 µM
C=C1CO[C@@H]2C[C@@H]1CCC1(C)OC1CC/C(C)=C/CC[C@@]2(C)O (stereo not given in full) | 59.6 µM | 32 µM | > 84.6 µM | 31.2 µM | 44.5 µM | 31.4 µM | 97.4 µM | 30.7 µM | 67.8 µM | 44 µM | 20.9 µM | 16.3 µM | 43.2 µM | 15.7 µM | 16.2 µM | 16.7 µM | 21.7 µM | 13.9 µM | 25.6 µM | 20 µM
C=C1C(=O)O[C@H]2[C@H]1CC(=O)/C(C)=C\CC[C@@]1(C)O[C@@H]21 | 8.12 µg/mL | 5.8 µg/mL | 8.47 µg/mL | 4.97 µg/mL | 1.3 µg/mL | 2.38 µg/mL | 9.57 µg/mL | 8.08 µg/mL | 8.4 µg/mL | 3.45 µg/mL | 3.75 µg/mL | 2.17 µg/mL | 3.99 µg/mL | 1.26 µg/mL | 0.514 µg/mL | 0.822 µg/mL | 4.93 µg/mL | 3.83 µg/mL | 4.17 µg/mL | 1.19 µg/mL
CCOC(=O)c1cnc2c(cnn2CC)c1NN=C(C)C | > 100 µM | > 100 µM | > 100 µM | > 100 µM | > 100 µM | > 100 µM | > 100 µM | > 100 µM | > 100 µM | > 100 µM | 94.6 µM | 38.3 µM | 53.5 µM | 47.1 µM | 74.2 µM | 24 µM | 36.6 µM | 57.5 µM | 38.2 µM | 22.9 µM

Source: PubChem BioAssay (NCI)
